In paper PMC6413952, “Discovery of ABBV-4083, a novel analog of Tylosin A that has potent anti-Wolbachia and anti-filarial activity” (PLoS Neglected Tropical Diseases, 2019):
Read-outs that look alike come from different tables or passages of the source.

What was measured:
[1] = system: Wolbachia pipientis in Aedes albopictus C6/36 (wAlbB) insect cells; assay: A·WOL Wolbachia-infected Aedes albopictus (C6/36 wAlbB) 7-day cell-based assay, high content imaging
From the text: Compounds were screened for anti-Wolbachia activity in vitro in the A·WOL-validated Wolbachia-infected Aedes albopictus (C6/36 wAlbB) 7-day cell-based assay which utilizes a 384-well format assay with high content imaging (HCI) (Operetta) as described previously.
We began our work by selecting a diverse and representative sample of the AbbVie antibiotics collection (129 compounds) for single-point testing against Wolbachia pipientis in an insect cell line. […] While TylA has a long history of use in multiple animal species, it has never been studied in humans; and its activity against Wolbachia has not previously been reported.

[2] = Rat oral pharmacokinetic study (plasma AUC, C8hr); assay type: in vivo, Sprague-Dawley rats; details: for AUC*/EC50: potency-weighted AUC
Description: PO doses were administrated by oral gavage, IP doses by intraperitoneal injection to BALB/c mice or Sprague-Dawley rats (Charles River Laboratories, USA). Serial blood samples collected into EDTA anticoagulant for plasma concentration analysis were obtained from each animal after dosing. EDTA preserved plasma samples were extracted by protein precipitation with acetonitrile fortified with internal standards. The supernatant was injected into an HPLC-MS/MS system for separation and quantitation. Detection was accomplished using a triple quadrupole mass spectrometer operated either in electrospray or atmospheric chemical ionization (APCI) mode. The area under the plasma concentration-time curve (AUC) was calculated using the linear trapezoidal rule.

[3] = system: Litomosoides sigmodontis / Wolbachia; assay: Litomosoides sigmodontis microfilariae-positive jird model; assay type: in vivo, jirds (Meriones unguiculatus)
Description: As described previously, female BALB/c mice or female jirds were infected at 6–8 weeks of age with L. sigmodontis larvae through the bites of Ornithonyssus bacoti mites.
Starting at 14 weeks post infection, microfilariae-positive jirds (n = 7 per group) were dosed PO with ABBV-4083 (150 mg/kg QD) dissolved in 0.5% HPMC/0.02% Tween-80 or vehicle using a volume of 5ml/kg. Microfilariae numbers were assessed through visual inspection of blood samples collected from the saphenous vein at weekly intervals post-dosing. For this, 10 μl of peripheral blood were diluted in 300 μl of Hinkelmann solution (0.5% Eosin Y, 0.5% Phenol, 0.185% Formaldehyde in aqua dest). After 5 minutes of centrifugation at 400g, the supernatant was discarded and the pellet transferred for microscopic quantification of the microfilariae. At 16 weeks post-treatment, jirds were euthanized by an overdose of isoflurane; worms were recovered from the pleural cavity and counted. Remaining intact female adult worms were used to assess embryogenesis and the Wolbachia load. For the latter, genomic DNA (gDNA) was extracted from individual female adult worms and quantification of the Wolbachia ftsZ (wLs-ftsZ) and L. sigmodontis β-actin (Ls-act) gene copy numbers was performed by quantitative real-time PCR (qPCR).
For embryograms, remaining intact female adult worms were individually homogenized in 20% Hinkelmann/80% PBS solution, diluted 1:10 in PBS and quantified by microscopy. Embryonal stages were differentiated as egg, morulae, pretzel and stretched microfilariae.

receptors = assay: Battery of 35 assays assessing general selectivity; assay type: binding; details: maximum concentration of 10 μM
From the text: (§1) As a preclinical candidate, ABBV-4083 has been evaluated in a variety of in vitro assays assessing preclinical safety. […] In preparation for first-in-human studies, the safety of ABBV-4083 has been extensively evaluated in 28-day GLP general and reproductive toxicity studies. In addition, the synthesis has been adapted to produce GMP quality supplies.

hERG channel = hERG channel (Homo sapiens, UniProt Q12809); assay: Functional hERG channel activity; assay type: biochemical; details: maximum concentration of 30 μM
From the text: as §1

[4] = Cardiovascular effects in dogs; assay type: in vivo; details: administered to dogs
From the text: as §1

[5] = In vitro genotoxicity screening assays; assay type: cell-based
From the text: as §1

[6] = In vitro phospholipidosis assay; assay type: cell-based
From the text: as §1

[7] = In vitro high-content steatosis screen; assay type: cell-based
From the text: as §1

[8] = system: Litomosoides, Brugia and Onchocerca; parameters: method as in PMID 30867321; details: cited from earlier work; for anti-Wolbachia efficacy compared with doxycycline: shorter durations of treatment
[9] = system: 77 mammalian receptors, ion channels, enzymes and transporters; parameters: method as in PMID 30867321; details: cited from earlier work
[10] = system: gram(+) and gram(-) microorganisms; parameters: method as in PMID 30867321; details: majority of panel; cited from earlier work

Sequence of hERG channel (Q12809 whole entry): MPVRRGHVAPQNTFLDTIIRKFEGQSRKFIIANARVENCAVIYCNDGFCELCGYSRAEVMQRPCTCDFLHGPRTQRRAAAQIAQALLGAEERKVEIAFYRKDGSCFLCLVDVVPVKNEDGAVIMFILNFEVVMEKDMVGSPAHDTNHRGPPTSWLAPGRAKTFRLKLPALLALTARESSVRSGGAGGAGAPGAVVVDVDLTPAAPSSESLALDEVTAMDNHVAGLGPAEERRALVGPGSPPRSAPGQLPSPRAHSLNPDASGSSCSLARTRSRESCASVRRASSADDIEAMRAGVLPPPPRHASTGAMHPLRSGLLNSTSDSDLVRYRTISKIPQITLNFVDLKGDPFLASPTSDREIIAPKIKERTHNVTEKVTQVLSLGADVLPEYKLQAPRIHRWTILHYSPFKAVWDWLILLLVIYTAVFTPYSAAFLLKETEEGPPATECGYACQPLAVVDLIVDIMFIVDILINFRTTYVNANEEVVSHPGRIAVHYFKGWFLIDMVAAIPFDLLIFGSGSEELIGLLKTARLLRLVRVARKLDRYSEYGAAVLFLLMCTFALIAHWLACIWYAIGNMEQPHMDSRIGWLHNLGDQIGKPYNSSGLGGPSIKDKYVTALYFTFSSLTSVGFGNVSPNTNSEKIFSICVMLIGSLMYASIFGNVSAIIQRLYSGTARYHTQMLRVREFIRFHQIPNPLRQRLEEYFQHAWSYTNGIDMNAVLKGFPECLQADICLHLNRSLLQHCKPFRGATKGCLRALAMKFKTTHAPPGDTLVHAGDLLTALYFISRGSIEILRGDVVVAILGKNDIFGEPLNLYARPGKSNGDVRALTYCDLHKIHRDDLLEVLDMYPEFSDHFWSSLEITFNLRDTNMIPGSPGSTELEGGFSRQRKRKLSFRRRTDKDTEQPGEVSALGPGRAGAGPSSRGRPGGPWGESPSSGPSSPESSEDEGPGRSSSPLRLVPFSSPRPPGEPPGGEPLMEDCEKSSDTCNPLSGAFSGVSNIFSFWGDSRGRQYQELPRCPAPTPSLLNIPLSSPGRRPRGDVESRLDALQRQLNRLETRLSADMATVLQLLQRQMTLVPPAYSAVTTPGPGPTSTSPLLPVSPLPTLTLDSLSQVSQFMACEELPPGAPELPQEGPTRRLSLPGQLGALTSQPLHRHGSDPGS

Question: For `CC[C@H]1OC(=O)C[C@@H](O)[C@H](C)[C@@H](O[C@@H]2O[C@H](C)[C@@H](O[C@H]3C[C@@](C)(O)[C@@H](OCc4ccc(F)cc4)[C@H](C)O3)[C@H](N(C)C)[C@H]2O)[C@@H](CC=O)C[C@@H](C)C(=O)/C=C/C(C)=C/[C@@H]1CO[C@@H]1O[C@H](C)[C@@H](O)[C@@H](OC)[C@H]1OC` [Compound 5d], which EC50 ([1]; C6/36, Wolbachia-infected insect cells, geometric mean (N), each N a duplicate measurement) is on record?
Answer: 0.019 nM

Question: And the “potency improvement (EC50) over TylA” value ([1]; EC50 lower than parent TylA)?
Answer: 1,500 fold

Question: What about the “C*8hr” value ([2]; PO rats, C(8hr)/dose) of the same compound?
Answer: 0.75 ng/mL per mg/kg

Question: What about the “AUC* parent” value ([2]; PO, Sprague-Dawley rats, AUC* = AUC/dose) of the same compound?
Answer: 16 ng-hr/ml per mg/kg

Question: And the “AUC* TylA (metabolite)” value ([2]; PO, Sprague-Dawley rats, primary metabolite TylA, AUC/dose)?
Answer: <0.6 ng-hr/ml per mg/kg

Question: What about the “potency-weighted 8-hr drug level (C8hr/dose/EC50) relative to TylA” value ([2]; oral dosing) of the same compound?
Answer: 2,000 fold

Question: And the “potency-weighted AUC (AUC*/EC50) relative to TylA” value ([2]; oral dosing)?
Answer: 2,500 fold

Question: And the “improvement in plasma drug levels (AUC) over TylA” value ([2]; oral dosing, rats)?
Answer: 1.7 fold

Question: And the “metabolic stability of substituent / species observed in plasma” value ([2]; oral pharmacokinetic study)?
Answer: only parent drug is observed in the plasma

Question: What about the “C*8hr/ EC50” value ([2]; potency-weighted 8-hr drug level, PO rats) of the same compound?
Answer: 39.5 ng/ml/nM per mg/kg

Question: What about the “AUC*/EC50” value ([2]; PO rats) of the same compound?
Answer: 842 ng-hr/ml/nM per mg/kg

Question: And the “AUC*/EC50” value ([2]; rat)?
Answer: 842,000 ng-hr/ml/uM per mg/kg

Question: And the Wolbachia depletion ([3]; 150mg/kg 14days QD, Fig 3A)?
Answer: -99,91%

Question: What about the “embryogenesis (embryograms of female worms)” value ([3]; 150 mg/kg PO QD 14 days, 16 weeks post treatment start) of the same compound?
Answer: near-complete loss of all embryonic forms including eggs

Question: What about the circulating microfilariae ([3]; 150 mg/kg PO QD 14 days, from 12 weeks pti until 16 weeks pti) of the same compound?
Answer: completely cleared

Question: What about the “reduction of Wolbachia levels in recovered female adult worms” value ([3]; 150 mg/kg PO once daily for 14 days, 16 weeks post-treatment-initiation) of the same compound?
Answer: > 99.9%

Question: And the “interactions with receptors in 35 selectivity assays” value (receptors)?
Answer: no significant interactions with any receptors

Question: And the “inhibition of functional hERG channel activity” value (hERG channel)?
Answer: did not inhibit

Question: What about the cardiovascular effects [4] of the same compound?
Answer: did not produce significant cardiovascular effects

Question: And the genotoxicity [5]?
Answer: neither mutagenic nor clastogenic

Question: What about the phospholipidosis [6] of the same compound?
Answer: No potential to induce phospholipidosis

Question: And the steatosis [7]?
Answer: did not induce steatosis

Question: And the direct microfilaricidal activity [8]?
Answer: not directly microfilaricidal

Question: And the “anti-Wolbachia efficacy compared with doxycycline” value [8]?
Answer: superior to doxycycline

Question: What about the “anti-Wolbachia efficacy compared with doxycycline” value ([8]; listed as ABBV-4083) of the same compound?
Answer: equals or exceeds the efficacy of doxycycline

Question: And the “interactions across 77 assays” value [9]?
Answer: significant interaction was only observed in two assays

Question: And the “change in susceptibility compared with TylA” value [10]?
Answer: little to no change in susceptibility
